Drawing on ChEMBL document CHEMBL1201862, “PubChem BioAssay data set” (2004), this text covers IC50, CC50 and EC50 for four compounds.

The source made the active and inactive calls. Cut-off read from the data, not from the text of the source, for most assays here: actives have a measured IC50 and inactives only a lower limit.

The nature of experiment [1]: insulin promoter down-regulators in MIN6 cells, imaging, high-content screening, mouse beta cells (AID 1628). Format: functional.
Experiment [2] in a line: cytotoxicity in MIN6 insulinoma cells, dose response, cytotoxicity control, cell-based, mouse insulinoma (AID 2122).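 Note: confirmatory high-throughput counterscreen run to flag cytotoxic compounds; mouse MIN-6 beta cells carrying an insulin promoter eGFP reporter.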 It counts as functional.
In experiment [3] the test system is Vero. The experiment is described as follows: cells. It counts as functional, cell-based. Particulars: Chlorocebus sabaeus.
For experiment [4], the system named is Vero. The experiment is described as follows: cells. It counts as functional. To be noted: Chlorocebus sabaeus.
In experiment [5] the target is T1, Caspase-3 (Homo sapiens, UniProt P42574).
T1 sequence (P42574 whole entry): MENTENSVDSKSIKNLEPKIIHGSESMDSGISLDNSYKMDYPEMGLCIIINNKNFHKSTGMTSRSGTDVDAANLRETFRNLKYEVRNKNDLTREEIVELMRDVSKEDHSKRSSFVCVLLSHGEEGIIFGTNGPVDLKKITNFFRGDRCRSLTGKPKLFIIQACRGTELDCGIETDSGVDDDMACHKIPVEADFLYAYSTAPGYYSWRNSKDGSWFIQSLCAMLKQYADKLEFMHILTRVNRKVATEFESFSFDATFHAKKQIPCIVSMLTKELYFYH
The experiment is described as follows: caspase-3 inhibitors as off-family protease, SAR follow-up, selectivity assay for SENP protease inhibitor project, biochemical, luminescence, set 2 (AID 588599). It counts as functional.

In experiment [6] the target is T2, Sentrin-specific protease 8 (Homo sapiens, UniProt Q96LD8).
T2 sequence (Q96LD8 whole entry): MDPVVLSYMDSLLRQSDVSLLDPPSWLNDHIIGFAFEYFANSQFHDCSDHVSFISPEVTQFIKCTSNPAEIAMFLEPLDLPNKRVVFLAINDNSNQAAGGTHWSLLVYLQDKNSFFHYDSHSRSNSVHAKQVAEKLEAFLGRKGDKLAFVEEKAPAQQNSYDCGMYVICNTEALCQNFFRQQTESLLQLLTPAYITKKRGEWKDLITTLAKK
The experiment is described as follows: SENP8 protease inhibitors, SAR follow-up, biochemical, luminescence, set 2 (AID 588601). It counts as functional.

Experiment [7] concerns the target T3, Sentrin-specific protease 7 (Homo sapiens, UniProt Q9BQF6).
T3 sequence (Q9BQF6 whole entry): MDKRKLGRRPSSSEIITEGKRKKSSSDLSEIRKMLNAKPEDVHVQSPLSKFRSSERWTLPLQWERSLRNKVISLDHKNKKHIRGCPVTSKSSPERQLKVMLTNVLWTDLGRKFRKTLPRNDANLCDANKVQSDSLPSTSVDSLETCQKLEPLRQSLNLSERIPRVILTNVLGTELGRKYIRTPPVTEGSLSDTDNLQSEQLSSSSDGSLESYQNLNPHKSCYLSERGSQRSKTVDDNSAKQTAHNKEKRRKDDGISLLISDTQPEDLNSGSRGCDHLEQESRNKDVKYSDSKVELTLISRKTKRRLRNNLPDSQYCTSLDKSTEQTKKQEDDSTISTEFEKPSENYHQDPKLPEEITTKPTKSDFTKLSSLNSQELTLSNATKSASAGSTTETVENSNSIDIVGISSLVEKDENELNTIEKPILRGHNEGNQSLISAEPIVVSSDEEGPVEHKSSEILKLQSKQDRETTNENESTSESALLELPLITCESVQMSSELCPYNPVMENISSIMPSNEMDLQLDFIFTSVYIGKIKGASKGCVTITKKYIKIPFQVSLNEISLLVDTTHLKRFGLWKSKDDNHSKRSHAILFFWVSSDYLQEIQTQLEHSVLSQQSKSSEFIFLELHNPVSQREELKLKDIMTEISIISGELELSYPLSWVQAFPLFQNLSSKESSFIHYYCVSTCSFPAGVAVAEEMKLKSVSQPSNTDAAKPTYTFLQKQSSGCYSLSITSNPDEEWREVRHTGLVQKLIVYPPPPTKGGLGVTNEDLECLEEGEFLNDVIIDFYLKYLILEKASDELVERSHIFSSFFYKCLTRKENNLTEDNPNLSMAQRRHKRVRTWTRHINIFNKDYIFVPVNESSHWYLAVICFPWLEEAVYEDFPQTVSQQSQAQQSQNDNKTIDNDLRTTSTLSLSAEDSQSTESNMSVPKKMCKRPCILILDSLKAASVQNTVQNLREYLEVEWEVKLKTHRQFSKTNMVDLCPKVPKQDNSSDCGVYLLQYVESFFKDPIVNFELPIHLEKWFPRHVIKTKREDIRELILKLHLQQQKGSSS
The experiment is described as follows: SENP7 protease inhibitors, SAR follow-up, biochemical, luminescence, set 2 (AID 588600). It counts as functional.

In experiment [8] the target is T4, Sentrin-specific protease 6 (Homo sapiens, UniProt Q9GZR1).
T4 sequence (Q9GZR1 whole entry): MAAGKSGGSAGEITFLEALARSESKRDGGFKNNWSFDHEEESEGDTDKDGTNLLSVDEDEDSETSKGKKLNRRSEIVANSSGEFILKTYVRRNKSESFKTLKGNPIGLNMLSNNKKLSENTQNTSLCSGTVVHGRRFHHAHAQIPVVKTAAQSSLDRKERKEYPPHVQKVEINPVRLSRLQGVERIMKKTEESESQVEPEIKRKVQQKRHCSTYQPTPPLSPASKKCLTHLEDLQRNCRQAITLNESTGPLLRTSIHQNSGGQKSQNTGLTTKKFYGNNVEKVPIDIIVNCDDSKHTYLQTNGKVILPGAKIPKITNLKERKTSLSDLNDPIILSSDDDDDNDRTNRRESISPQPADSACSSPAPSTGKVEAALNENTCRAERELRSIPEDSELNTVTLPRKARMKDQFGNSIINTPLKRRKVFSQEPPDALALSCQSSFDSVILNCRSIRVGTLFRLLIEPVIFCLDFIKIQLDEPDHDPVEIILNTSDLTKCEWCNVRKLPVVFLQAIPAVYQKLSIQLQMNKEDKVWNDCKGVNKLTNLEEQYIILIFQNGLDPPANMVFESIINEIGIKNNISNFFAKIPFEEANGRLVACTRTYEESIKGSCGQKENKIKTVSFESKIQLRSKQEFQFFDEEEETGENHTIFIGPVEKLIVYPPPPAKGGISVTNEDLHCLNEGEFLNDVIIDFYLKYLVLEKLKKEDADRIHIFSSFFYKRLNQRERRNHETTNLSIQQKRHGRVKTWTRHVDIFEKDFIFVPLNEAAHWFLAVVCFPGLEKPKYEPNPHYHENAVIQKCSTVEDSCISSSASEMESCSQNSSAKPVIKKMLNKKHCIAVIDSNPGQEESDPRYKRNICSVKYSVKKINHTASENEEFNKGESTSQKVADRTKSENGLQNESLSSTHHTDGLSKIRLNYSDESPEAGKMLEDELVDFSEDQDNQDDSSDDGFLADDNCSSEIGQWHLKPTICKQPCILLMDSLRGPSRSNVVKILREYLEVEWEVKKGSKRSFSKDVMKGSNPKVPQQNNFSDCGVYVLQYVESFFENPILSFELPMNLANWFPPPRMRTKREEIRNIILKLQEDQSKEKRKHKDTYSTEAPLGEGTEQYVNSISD
The experiment is described as follows: SENP6 protease inhibitors, SAR follow-up, biochemical, luminescence, set 2 (AID 588598). It counts as functional.

In experiment [9] the target is Beta-2 adrenergic receptor (Homo sapiens, UniProt P07550). The experiment in a line: beta2AR agonists driving receptor internalization, dose response, cell-based, FAP fluorogen, flow cytometry, cherry pick 1 (AID 588763). Format: functional. A general note: Flow cytometry measures light scatter and fluorescence of single cells or particles in a stream.
For experiment [10], the target named is T2, Sentrin-specific protease 8. The experiment is described as follows: SENP8 protease inhibitors, SAR follow-up, biochemical, luminescence (AID 504501). It counts as functional.
For experiment [11], the target named is T1, Caspase-3. The experiment is described as follows: SAR Analysis of small molecule inhibitors of Sentrin-specific proteases (SENPs) using a Caspase-3 Selectivity assay. [Related pubchem assays (depositor defined):AID2540, AID2599, AID434973, AID489001]. It counts as functional.
Experiment [12] has as its target T4, Sentrin-specific protease 6. The experiment is described as follows: SAR Analysis of small molecule inhibitors of Sentrin-specific protease 6 (SENP6) using a Luminescent assay. [Related pubchem assays (depositor defined):AID2582, AID2599]. Format: functional.
In experiment [13] the target is T3, Sentrin-specific protease 7. The experiment is described as follows: SENP7 protease inhibitors, SAR follow-up, biochemical, luminescence (AID 504497). Format: functional.

Beta-2 adrenergic receptor, sequence (P07550 whole entry): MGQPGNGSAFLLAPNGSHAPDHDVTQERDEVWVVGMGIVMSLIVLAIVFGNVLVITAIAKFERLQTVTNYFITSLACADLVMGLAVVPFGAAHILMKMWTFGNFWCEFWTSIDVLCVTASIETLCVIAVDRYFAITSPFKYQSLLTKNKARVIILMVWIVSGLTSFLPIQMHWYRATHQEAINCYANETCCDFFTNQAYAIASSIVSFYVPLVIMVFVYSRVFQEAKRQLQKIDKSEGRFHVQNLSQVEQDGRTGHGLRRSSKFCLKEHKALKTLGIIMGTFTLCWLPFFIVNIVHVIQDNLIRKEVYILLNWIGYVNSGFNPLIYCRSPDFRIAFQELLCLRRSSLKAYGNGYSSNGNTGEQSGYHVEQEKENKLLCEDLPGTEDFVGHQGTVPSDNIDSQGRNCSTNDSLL

In general, IC50 refers to the concentration at which inhibition is half-maximal. As a reminder, the CC50 is the concentration at which the toxic effect on the cells reaches its halfway point. On to `Cc1ccc(-n2ncc3c(SCc4cccnc4)ncnc32)c(C)c1`, for which the IC50 in experiment [1] was 1.77 µM (active); in [2], 1.09 µM (active); with Vero [3], 21.8 µM (active). Also, the CC50 with Vero [4] was 20.9 µM (active).
Consider `Cc1sc2ncnc(N3CCC(C(=O)Nc4nc5c(F)cc(F)cc5s4)CC3)c2c1C`, for which the IC50 (at Caspase-3 [5]; in experiment [6]; in [7]; in experiment [8]) was > 99 µM (inactive) in each case.
A word on the EC50: it is the concentration giving half of the maximal effect. For `CCOCCCNC(=O)c1cc(-c2cccnc2)nc2ccc(S(=O)(=O)N3CCC(C)CC3)cc12`, the EC50 in [9] was 6.09 µM (inactive).
In the case of `N#Cc1c(NC(=O)c2cc3ncc(Br)cn3n2)sc2c1CCCC2`, the IC50 (in experiment [10]; on Caspase-3 [11]; in experiment [12]; in experiment [13]) was > 99 µM (inactive) in each case.
